As usually defined, the IC50 is the concentration needed to halve the response being measured.

T1 sequence (Q14831 35-922 isoform Q14831-2 limits assumed): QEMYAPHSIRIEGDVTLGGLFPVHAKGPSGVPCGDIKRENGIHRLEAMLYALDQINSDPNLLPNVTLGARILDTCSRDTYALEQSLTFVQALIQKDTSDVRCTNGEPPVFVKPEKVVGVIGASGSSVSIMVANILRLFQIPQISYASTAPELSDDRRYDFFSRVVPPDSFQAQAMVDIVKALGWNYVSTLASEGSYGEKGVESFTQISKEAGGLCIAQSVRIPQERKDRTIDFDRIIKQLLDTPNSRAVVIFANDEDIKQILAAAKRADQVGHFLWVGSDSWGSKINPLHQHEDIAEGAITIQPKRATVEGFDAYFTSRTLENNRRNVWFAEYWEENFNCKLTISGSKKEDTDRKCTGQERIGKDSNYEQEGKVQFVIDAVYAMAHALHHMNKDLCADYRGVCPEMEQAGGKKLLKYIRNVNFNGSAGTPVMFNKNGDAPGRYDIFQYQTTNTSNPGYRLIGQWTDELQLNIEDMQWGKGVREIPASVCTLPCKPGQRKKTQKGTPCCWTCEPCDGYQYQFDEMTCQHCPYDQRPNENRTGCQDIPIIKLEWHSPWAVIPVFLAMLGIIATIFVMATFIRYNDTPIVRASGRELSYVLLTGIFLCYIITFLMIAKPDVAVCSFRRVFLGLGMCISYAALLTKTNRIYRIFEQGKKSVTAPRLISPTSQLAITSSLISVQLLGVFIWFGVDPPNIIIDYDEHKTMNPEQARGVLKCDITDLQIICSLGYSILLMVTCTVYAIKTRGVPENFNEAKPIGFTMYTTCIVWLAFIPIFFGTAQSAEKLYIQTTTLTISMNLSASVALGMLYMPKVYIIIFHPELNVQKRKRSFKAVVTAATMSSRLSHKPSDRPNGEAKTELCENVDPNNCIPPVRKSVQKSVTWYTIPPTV

The assay concerns the target T1, human metabotropic glutamate 7 receptor (hmGlu7) (Homo sapiens, UniProt Q14831).
T1 construct: expressed in transfected cells
Briefly: mGlu7 assay on HEK-expressing human mGlu7: fluorescent cell based-Ca2+ mobilization assay (FLIPR), inhibition of EC80 L-AP4 response. The note with it: HEK-293 cells expressing hmGlu7, EC80 L-AP4; mean of at least three independent experiments in duplicate; read-out: Ca^2+ Flux (mean IC50). From the text:
mGlu7 Assay on HEK-Expressing Human mGLU7
The cDNA encoding the human metabotropic glutamate 7 receptor (hmGlu7), (accession number NM_181874.2, NCBI Nucleotide database browser), was subcloned into an expression vector containing also the hygromycin resistance gene. In parallel, the cDNA encoding a G protein allowing redirection of the activation signal to intracellular calcium flux was subcloned into a different expression vector containing also the Puromycin resistance gene. Transfection of both these vectors into HEK293 cells with PolyFect reagent (Qiagen) according to supplier's protocol, and hygromycin and puromycin treatment allowed selection of antibiotic resistant cells which had integrated stably one or more copies of the plasmids. Positive cellular clones expressing hmGlu7 were identified in a functional assay measuring changes in calcium fluxes in response to glutamate and L-AP4 or known mGlu7 orthosteric antagonists.
HEK-293 cells expressing hmGlu7 were maintained in media containing DMEM, Fetal Bovine Serum (10%), GlutaMAX™ (2 mM), penicillin (100 units/mL), streptomycin (100 μg/mL), geneticin (100 μg/mL) and hygromycin-B (40 μg/mL) and puromycin (1 μg/mL) at 37° C. with 5% CO2 in a humidified atmosphere.
Human mGlu7 HEK-293 cells were plated out 24 hours prior to a fluorescent cell-based calcium mobilization assay using FLIPR^384 assay (Molecular Device, Sunnyvale, CA, USA) in black-walled, clear-bottomed, poly-L-ornithine-coated 384-well plates at a density of 25,000 cells/well in a glutamine/glutamate free DMEM medium containing fetal bovine serum (10%), penicillin (100 units/mL), streptomycin (100 μg/mL) and doxycyline (1 μg/ml) at 37° C. with 5% CO2 in a humidified atmosphere.
On the day of the assay, the medium was aspirated and the cells were loaded with a 3 μM solution of Fluo4-AM (LuBioScience, Lucerne, Switzerland) in 0.03% pluronic acid. After 1 hour at 37° C./5% CO2, the non incorporated dye was removed by washing cell plate with the assay buffer. All assays were performed in a pH 7.4 buffered-Solution containing 20 mM HEPES, 143 mM NaCl, 6 mM KCl, 1 mM MgSO4, 1 mM CaCl2, 0.125 mM sulfinpyrazone and 0.1% glucose.
After 10 s of basal fluorescence recording, various concentrations of the compounds of the invention were added to the cells. Changes in fluorescence levels were first monitored for 180 s in order to detect any agonist activity of the compounds. Then the cells were stimulated by an EC80 L-AP4 concentration for an additional 110 s in order to measure inhibiting activities of the compounds of the invention. EC80 L-AP4 concentration is the concentration giving 80% of the maximal glutamate response.
The concentration-response curves of L-AP4 or representative compounds of the present invention were generated using the Prism GraphPad software (Graph Pad Inc, San Diego, USA). The curves were fitted to a four-parameter logistic equation:
(Y=Bottom+(Top−Bottom)/(1+10^((Log IC50−X)*Hill Slope)
allowing determination of IC50 values.
The Table 3 below represents the mean IC50 obtained from at least three independent experiments of selected molecules performed in duplicate.
(Calcium assays in cells follow changes in intracellular calcium, usually with a dye or a luminescent sensor.)
Turning to `Cc1c(-c2cccc(N3CCC3)c2)c(C)n2c(=O)n(-c3ncccn3)ncc12` [1-23], the IC50 was less than 100 nM.

As to `Cc1c(-c2cccc(OC(F)F)c2)c(C)n2c(=O)n(-c3ccccn3)ncc12` [1-37], the IC50 is less than 100 nM.

For `Cc1ccc(-c2c(C)c3cnn(-c4ncccn4)c(=O)n3c2C)c(C)c1` [1-79], the half-inhibitory concentration (IC50) is 1000 to 10000 nM.

As to `Cc1c(-c2cccc(N3CCC3)c2)c(C)n2c(=O)n(-c3ccc(Br)cn3)ncc12` [1-26], the IC50 lay within 1000 to 10000 nM.

`COc1ccc(F)c(-c2c(C)c3cnn(-c4ccccn4)c(=O)n3c2C)c1` [1-126]: the IC50 was in the range of 100 to 1000 nM.

For the compound `Cc1c(-c2cccc(OC3CC3)c2)c(C)n2c(=O)n(-c3ncc(Cl)cn3)ncc12` [1-48], the IC50 fell in the range of 100 to 1000 nM.

Turning to `Cc1c(-c2cccc(N3CCC3)c2)c(C)n2c(=O)n(-c3ccc(NCCN(C)C)cn3)ncc12` [1-36], the IC50 was 100 to 1000 nM.

As to `Cc1c(-c2cccc(N3CCC3)c2)c(C)n2c(=O)n(-c3ccncc3)ncc12` [1-6], the IC50 lay within 100 to 1000 nM.

For `COc1cccc(-c2c(Br)c3cnn(-c4ccccn4)c(=O)n3c2C)c1F` [1-115, 8-bromo-7-(2-fluoro-3-methoxy-phenyl)-6-methyl-3-(2-pyridyl)pyrrolo[1,2-d][1,2,4]triazin-4-one], the IC50 lay in the range of 100 to 1000 nM.

Take `Cc1c(-c2ccnc(OC(F)F)c2)cc2cnn(-c3ccccn3)c(=O)n12` [1-146]: the IC50 was 100 to 1000 nM.

Consider `COc1nccc(-c2c(C)c3cnn(-c4ncccn4)c(=O)n3c2C)c1F` [1-138], for which the IC50 is 100 to 1000 nM.

`COc1cc(F)cc(-c2cc3cnn(-c4ncccn4)c(=O)n3c2C)c1` [1-103]: the IC50 was less than 100 nM.

On to `COc1cnc(-n2ncc3c(C)c(-c4cccc(OC(F)F)c4)c(C)n3c2=O)nc1` [1-57], for which the IC50 lay in the range of 100 to 1000 nM.

Consider `Cc1c(-c2cccc(N3CCC3)c2)c(C)n2c(=O)n(-c3ccc(F)cn3)ncc12` [1-22], for which the IC50 is less than 100 nM.

For the compound `COc1ccc(-c2cc3cnn(-c4ccccn4)c(=O)n3c2C)cn1` [1-142], the IC50 is 100 to 1000 nM.

Regarding `Cc1c(-c2cccc(OC3CCC3)c2)c(C)n2c(=O)n(-c3ncccn3)ncc12` [1-124], the IC50 lay within 100 to 1000 nM.

Consider `Cc1c(-c2cccc(N3CCC3)c2)c(C)n2c(=O)n(C3CC3)ncc12` [1-33], for which the IC50 fell in the range of 100 to 1000 nM.

On to `Cc1c(-c2cccc(N3CCC3)c2)c(C)n2c(=O)n(-c3ncc(F)cn3)ncc12` [1-15], for which the IC50 is less than 100 nM.

Consider `Cc1c(-c2cccc(OC3CC3)c2)c(C)n2c(=O)n(-c3ncccc3F)ncc12` [1-51], for which the IC50 is 100 to 1000 nM.

With `Cc1c(-c2cccc3c2CCN3C)cc2cnn(-c3ncccn3)c(=O)n12` [1-90], the IC50 was less than 100 nM.

Consider `COc1cc(-c2cc3cnn(-c4ncccn4)c(=O)n3c2C)ccn1` [1-114], for which the IC50 is less than 100 nM.

As to `Cc1c(-c2cccc(OC3CC3)c2F)cc2cnn(-c3ccccn3)c(=O)n12` [1-109], the IC50 was less than 100 nM.

For `Cc1c(-c2cccc(N3CCC3)c2)c(C)n2c(=O)n(-c3ncccc3F)ncc12` [1-7], the IC50 is less than 100 nM.

As for `Cc1c(-c2cccc(OC3CC3)c2)c(C)n2c(=O)n(-c3ncc(F)cn3)ncc12` [1-21], the IC50 is less than 100 nM.

Take `Cc1c(-c2cccc(N3CCC3)c2)c(C)n2c(=O)n(-c3ccc(NC(=O)OC(C)(C)C)cn3)ncc12` [1-31]: the IC50 fell in the range of 100 to 1000 nM.

On to `Cc1ccc(-c2c(C)c3cnn(-c4ccccn4)c(=O)n3c2C)c(C)c1` [1-1], for which the IC50 is less than 100 nM.

For `Cc1cnc(-n2ncc3c(C)c(-c4cccc(OC5CC5)c4)c(C)n3c2=O)nc1` [1-50], the 50% inhibitory concentration (IC50) fell in the range of 100 to 1000 nM.

For the compound `Cc1c(-c2cccc3c2CCN3C2CC2)cc2cnn(-c3ncccn3)c(=O)n12` [1-67], the IC50 was in the range of 100 to 1000 nM.

With `COc1cccc(-c2cc3cnn(-c4ncccn4)c(=O)n3c2C)c1Cl` [1-77], the IC50 was less than 100 nM.

`CCn1ncc2c(C)c(-c3cccc4c3CCCN4C)c(C)n2c1=O` [1-94]: the half-maximal inhibitory concentration (IC50) lay within 100 to 1000 nM.

Take `Cc1c(-c2cccc(N3CCC3)c2)c(C)n2c(=O)n(-c3ncc(OC(F)F)cn3)ncc12` [1-42]: the IC50 is less than 100 nM.

As for `Cc1c(-c2cccc(N3CCC3)c2)c(C)n2c(=O)n(-c3ncc(N)cn3)ncc12` [1-44], the half-maximal inhibitory concentration (IC50) was less than 100 nM.

Regarding `Cc1c(-c2cccc(OC3CC3)c2Cl)cc2cnn(-c3ncccn3)c(=O)n12` [1-110], the IC50 was less than 100 nM.

For the compound `Cc1c(OC2CC2)cccc1-c1cc2cnn(-c3ncccn3)c(=O)n2c1C` [1-85], the IC50 was 100 to 1000 nM.

`Cc1c(-c2ccnc3c2CCN3C)cc2cnn(-c3ccccn3)c(=O)n12` [1-118, 6-methyl-7-(1-methyl-2,3-dihydropyrrolo[2,3-b]pyridin-4-yl)-3-(2-pyridyl)pyrrolo[1,2-d][1,2,4]triazin-4-one]: the IC50 was less than 100 nM.

For `Cc1c(-c2cccc3c2CC(=O)N3C)cc2cnn(-c3ccccn3)c(=O)n12` [1-78], the IC50 is less than 100 nM.

Turning to `COc1cnc(-n2ncc3c(C)c(-c4cccc(N5CCC5)c4)c(C)n3c2=O)nc1` [1-25], the IC50 is less than 100 nM.

With `Cc1c(-c2cccc3c2OCCN3C)cc2cnn(-c3ccccn3)c(=O)n12` [1-62], the IC50 was less than 100 nM.

Regarding `CCOC(=O)c1cnc(-n2ncc3c(C)c(-c4cccc(OC5CC5)c4)c(C)n3c2=O)nc1` [1-19], the 50% inhibitory concentration (IC50) lay in the range of 1000 to 10000 nM.

On to `Cc1ccc(OC2CC2)cc1-c1c(C)c2cnn(-c3ncccn3)c(=O)n2c1C` [1-93], for which the IC50 was less than 100 nM.

On to `COc1ccc(F)c(-c2cc3cnn(-c4ccccn4)c(=O)n3c2C)c1` [1-102], for which the IC50 was less than 100 nM.

In the case of `Cc1cnc(-n2ncc3c(C)c(-c4cccc(OC5CC5)c4C)c(C)n3c2=O)nc1` [1-52], the IC50 lay in the range of 100 to 1000 nM.

As for `Cc1c(-c2cccc(OC(F)F)c2)c(C)n2c(=O)n(-c3ncccn3)ncc12` [1-58], the half-inhibitory concentration (IC50) was less than 100 nM.

Take `COc1ccc(-c2c(C)c3cnn(-c4ncccn4)c(=O)n3c2C)c(C)c1` [1-134]: the IC50 was less than 100 nM.

On to `Cc1c(-c2cccc(OC(F)(F)F)c2)c(C)n2c(=O)n(-c3ncccn3)ncc12` [1-53, 6,8-dimethyl-3-pyrimidin-2-yl-7-[3-(trifluoromethoxy)phenyl]pyrrolo[1,2-d][1,2,4]triazin-4-one], for which the IC50 is 100 to 1000 nM.

As for `Cc1c(-c2cccc(N3CCC3)c2)c(C)n2c(=O)n(-c3ccccn3)ncc12` [1-3, 7-[3-(azetidin-1-yl)phenyl]-6,8-dimethyl-3-(2-pyridyl)pyrrolo[1,2-d][1,2,4]triazin-4-one], the IC50 was less than 100 nM.

As for `Cc1c(-c2cccc3c2CCCN3C)cc2cnn(-c3ncccn3)c(=O)n12` [1-89], the IC50 is less than 100 nM.

Take `COc1cccc(-c2cc3cnn(-c4ccccn4)c(=O)n3c2C)c1C` [1-72]: the IC50 was less than 100 nM.

Turning to `COc1cccc(-c2c(C)c3cnn(-c4ccccn4)c(=O)n3c2C)c1` [1-2], the IC50 was less than 100 nM.

On to `Cc1c(-c2cccc(N3CCC3)c2)c(C)n2c(=O)n(C3CCOCC3)ncc12` [1-5], for which the IC50 fell in the range of 100 to 1000 nM.

With `Cc1c(-c2cccc(OC3CC3)c2)c(C)n2c(=O)n(-c3ncc(N4CCOCC4)cn3)ncc12` [1-47, 7-[3-(cyclopropoxy)phenyl]-6,8-dimethyl-3-(5-morpholinopyrimidin-2-yl)pyrrolo[1,2-d][1,2,4]triazin-4-one], the IC50 is 100 to 1000 nM.

`COc1ccc(-c2c(C)c3cnn(-c4ncccn4)c(=O)n3c2C)cc1` [1-122]: the half-inhibitory concentration (IC50) lay within 100 to 1000 nM.

In the case of `COc1cccc(-c2c(C)c3cnn(-c4ncccn4)c(=O)n3c2C)c1C` [1-95], the IC50 was 100 to 1000 nM.
